For test [1], the target named is T1, Protein kinase C epsilon type (Homo sapiens, UniProt Q02156).
T1 sequence (Q02156 whole entry): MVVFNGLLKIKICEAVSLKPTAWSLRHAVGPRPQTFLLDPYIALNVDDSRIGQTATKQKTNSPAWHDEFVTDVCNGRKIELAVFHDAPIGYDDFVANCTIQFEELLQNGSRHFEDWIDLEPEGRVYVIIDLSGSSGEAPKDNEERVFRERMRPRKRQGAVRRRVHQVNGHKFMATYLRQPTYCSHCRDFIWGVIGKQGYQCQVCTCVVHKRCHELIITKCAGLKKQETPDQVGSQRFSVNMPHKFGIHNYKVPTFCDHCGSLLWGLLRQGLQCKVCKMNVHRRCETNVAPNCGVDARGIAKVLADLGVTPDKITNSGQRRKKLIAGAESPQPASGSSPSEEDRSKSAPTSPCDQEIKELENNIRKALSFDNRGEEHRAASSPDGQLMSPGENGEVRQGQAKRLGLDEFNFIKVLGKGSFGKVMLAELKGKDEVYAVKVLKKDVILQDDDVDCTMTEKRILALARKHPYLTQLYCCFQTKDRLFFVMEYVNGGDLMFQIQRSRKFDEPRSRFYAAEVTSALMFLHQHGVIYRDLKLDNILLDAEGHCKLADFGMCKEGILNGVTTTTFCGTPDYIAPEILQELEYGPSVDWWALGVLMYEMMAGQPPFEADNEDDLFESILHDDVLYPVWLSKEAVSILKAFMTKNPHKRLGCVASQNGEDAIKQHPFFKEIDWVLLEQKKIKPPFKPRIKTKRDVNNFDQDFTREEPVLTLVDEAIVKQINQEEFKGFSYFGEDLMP
Description: Displacement of [3H]PDBu from PKCepsilon C1B domain. In general terms: Displacement assays read how much labelled ligand stays bound in the presence of the test substance.

Test [2] deals with Protein kinase C delta type (Homo sapiens, UniProt Q05655). Description: Displacement of [3H]PDBu from PKCdelta C1B domain.
Protein kinase C delta type, sequence (Q05655 whole entry, the tested form may be a part): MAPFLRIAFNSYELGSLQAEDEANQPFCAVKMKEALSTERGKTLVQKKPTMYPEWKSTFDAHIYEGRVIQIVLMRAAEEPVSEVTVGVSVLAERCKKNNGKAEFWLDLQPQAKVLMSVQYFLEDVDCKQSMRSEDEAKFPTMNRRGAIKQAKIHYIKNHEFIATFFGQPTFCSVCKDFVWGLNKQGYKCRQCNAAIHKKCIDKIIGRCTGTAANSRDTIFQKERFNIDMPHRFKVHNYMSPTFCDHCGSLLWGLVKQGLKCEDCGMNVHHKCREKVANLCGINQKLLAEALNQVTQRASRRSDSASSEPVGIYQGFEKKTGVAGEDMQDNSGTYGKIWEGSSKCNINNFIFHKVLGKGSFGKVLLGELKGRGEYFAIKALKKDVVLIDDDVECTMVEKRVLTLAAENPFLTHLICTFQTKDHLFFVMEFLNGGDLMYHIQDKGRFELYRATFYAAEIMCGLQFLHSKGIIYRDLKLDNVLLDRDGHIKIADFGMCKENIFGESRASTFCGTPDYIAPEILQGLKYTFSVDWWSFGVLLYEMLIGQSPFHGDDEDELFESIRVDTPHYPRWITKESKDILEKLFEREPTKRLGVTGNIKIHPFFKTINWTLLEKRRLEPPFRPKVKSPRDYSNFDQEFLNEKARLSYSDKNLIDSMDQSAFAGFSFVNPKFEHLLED
The target in test [3] is Protein kinase C eta type (Homo sapiens, UniProt P24723). The experiment in a line: Displacement of [3H]PDBu from PKCeta C1B domain.
Protein kinase C eta type, sequence (P24723 whole entry, the tested form may be a part): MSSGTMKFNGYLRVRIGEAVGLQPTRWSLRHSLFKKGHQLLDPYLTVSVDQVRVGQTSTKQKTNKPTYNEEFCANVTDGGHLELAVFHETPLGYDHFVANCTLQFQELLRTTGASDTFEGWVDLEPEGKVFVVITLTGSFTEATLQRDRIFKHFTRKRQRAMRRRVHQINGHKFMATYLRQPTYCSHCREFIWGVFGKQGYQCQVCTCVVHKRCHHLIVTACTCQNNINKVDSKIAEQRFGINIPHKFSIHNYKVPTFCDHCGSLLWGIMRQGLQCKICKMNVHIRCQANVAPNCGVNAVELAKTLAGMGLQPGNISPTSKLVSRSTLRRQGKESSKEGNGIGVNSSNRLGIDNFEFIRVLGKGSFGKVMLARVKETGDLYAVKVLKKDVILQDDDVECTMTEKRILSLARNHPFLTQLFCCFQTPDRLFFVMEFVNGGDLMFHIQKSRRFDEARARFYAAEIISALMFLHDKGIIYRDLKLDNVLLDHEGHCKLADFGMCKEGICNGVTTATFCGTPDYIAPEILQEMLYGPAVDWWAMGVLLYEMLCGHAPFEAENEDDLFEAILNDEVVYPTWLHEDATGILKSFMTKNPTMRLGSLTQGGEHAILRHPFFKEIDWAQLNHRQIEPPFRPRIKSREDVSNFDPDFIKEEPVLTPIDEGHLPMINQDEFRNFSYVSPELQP
Test [4] deals with Protein kinase C theta type (Homo sapiens, UniProt Q04759). Description: Displacement of [3H]PDBu from PKCtheta C1B domain.
Protein kinase C theta type, sequence (Q04759 whole entry, the tested form may be a part): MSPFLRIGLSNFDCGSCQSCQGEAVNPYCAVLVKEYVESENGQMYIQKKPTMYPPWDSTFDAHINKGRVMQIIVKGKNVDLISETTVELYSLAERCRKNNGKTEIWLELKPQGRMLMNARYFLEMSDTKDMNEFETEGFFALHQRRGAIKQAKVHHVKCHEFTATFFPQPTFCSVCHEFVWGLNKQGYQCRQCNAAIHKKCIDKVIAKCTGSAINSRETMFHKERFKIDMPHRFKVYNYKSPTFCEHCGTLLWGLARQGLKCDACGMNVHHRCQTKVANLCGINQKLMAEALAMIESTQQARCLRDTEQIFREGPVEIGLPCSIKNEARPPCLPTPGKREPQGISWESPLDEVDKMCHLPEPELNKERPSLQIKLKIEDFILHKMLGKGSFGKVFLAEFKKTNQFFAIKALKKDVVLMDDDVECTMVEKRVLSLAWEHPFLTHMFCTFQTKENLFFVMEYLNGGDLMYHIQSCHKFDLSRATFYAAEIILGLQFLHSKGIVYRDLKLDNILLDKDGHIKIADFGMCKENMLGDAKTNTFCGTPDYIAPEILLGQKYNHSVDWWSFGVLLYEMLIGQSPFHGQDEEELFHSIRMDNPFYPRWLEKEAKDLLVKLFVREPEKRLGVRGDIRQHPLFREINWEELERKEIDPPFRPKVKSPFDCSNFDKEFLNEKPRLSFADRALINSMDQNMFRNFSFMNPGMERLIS
Test [5] concerns the target T2, Protein kinase C alpha type (Homo sapiens, UniProt P17252). Description: Displacement of [3H]PDBu from PKCalpha C1A domain.
The target of test [6] is T3, Protein kinase C beta type (Homo sapiens, UniProt P05771). Description: Displacement of [3H]PDBu from PKCbeta C1B domain.
T3 sequence (P05771 whole entry, the tested form may be a part): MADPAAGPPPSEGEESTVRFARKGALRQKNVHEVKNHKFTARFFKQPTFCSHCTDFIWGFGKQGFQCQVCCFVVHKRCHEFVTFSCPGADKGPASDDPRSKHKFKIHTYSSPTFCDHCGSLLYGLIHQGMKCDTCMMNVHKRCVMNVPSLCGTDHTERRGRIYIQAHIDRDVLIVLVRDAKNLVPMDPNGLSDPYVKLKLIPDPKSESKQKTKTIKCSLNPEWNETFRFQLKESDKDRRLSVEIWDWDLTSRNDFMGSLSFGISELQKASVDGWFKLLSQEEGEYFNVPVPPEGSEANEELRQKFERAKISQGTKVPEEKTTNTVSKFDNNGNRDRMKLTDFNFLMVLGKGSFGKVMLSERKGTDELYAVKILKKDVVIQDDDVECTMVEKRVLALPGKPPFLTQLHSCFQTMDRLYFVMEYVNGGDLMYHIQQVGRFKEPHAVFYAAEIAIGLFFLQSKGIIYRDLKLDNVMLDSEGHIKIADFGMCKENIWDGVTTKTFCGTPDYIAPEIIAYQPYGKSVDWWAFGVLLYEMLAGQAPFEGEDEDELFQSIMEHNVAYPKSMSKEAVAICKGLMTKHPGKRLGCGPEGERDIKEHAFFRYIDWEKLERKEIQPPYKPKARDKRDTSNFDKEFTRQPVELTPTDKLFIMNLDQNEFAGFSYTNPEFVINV
The target of test [7] is T3, Protein kinase C beta type. Description: Displacement of [3H]PDBu from PKCbeta C1A domain.
Test [8] deals with T2, Protein kinase C alpha type. The experiment in a line: Displacement of [3H]PDBu from PKCalpha C1B domain.
The target in test [9] is T4, Protein kinase C gamma type (Homo sapiens, UniProt P05129). The experiment in a line: Displacement of [3H]PDBu from PKCgamma C1A domain.
Test [10] has as its target T4, Protein kinase C gamma type. Description: Displacement of [3H]PDBu from PKCgamma C1B domain.

pKi: −log10 of the molar value. Where only a bound is given, the exact number is not on record here.

As to `CC(C)[C@H]1C(=O)N[C@H](CO)Cc2cn3nc(C(F)(F)F)c4ccc(c2c43)N1C`, the pKi in [1] was 7.10; in test [2], 7.28; in [3], 7.53; in [4] it was 7.29; in [5] it was 6.95; in test [6], 5.03. In addition, the negative-log Ki (pKi) in [7] was 6.90; in [8] it was 6.14; in [9], 6.63; in [10], 5.96.

With `CC(C)[C@H]1C(=O)N[C@H](CO)Cc2cn3ncc4ccc(c2c43)N1C`, the pKi in test [1] is 7.65; in test [2], 7.75; in [3], 8.00; in test [4], 7.73; in [5] it was 7.07; in test [6] it was 5.22. Moreover, the negative logarithm of the Ki (pKi) in [7] is 7.06; in test [8] it was 6.45; in test [9], 7.21; in test [10], 6.65.

As for `Cc1nn2cc3c4c(ccc1c42)N(C)[C@@H](C(C)C)C(=O)N[C@H](CO)C3`, the pKi in test [1] was 6.39; in test [2], 6.89; in [3], 6.65; in test [4], 6.83; in test [5] it was 5.96; in test [6], under 5.00. Also, the negative logarithm of the Ki (pKi) in test [7] was 5.96; in [8] it was 5.58; in [9], 5.82; in test [10] it was 5.59.

With `CC(C)[C@H]1C(=O)N[C@H](CO)Cc2c[nH]c3cccc(c23)N1C` [INDOLACTUM], the values for the negative logarithm of the Ki (pKi) in [6] and in test [8] were 5.40 and 6.85, respectively.

Broadly, the pKi is the negative decadic logarithm of the Ki, by convention in mol/L. Higher therefore signals a low Ki.

The values above are taken from ChEMBL document CHEMBL1143200, “Design and physicochemical properties of new fluorescent ligands of protein kinase C isozymes focused on CH/pi interaction” (Bioorg Med Chem, 2008).
